# Source: patent US20190231788A1, “COMPOSITIONS COMPRISING TIMOLOL AND AN ANTI-INFLAMMATORY AGENT” (Almirall, S.A., priority 2016, published 2019)
# What was measured:
# [1] = tested on: TPA-induced ear oedema; test: TPA-induced ear oedema model in Balb/c mice, single topical application; format: in vivo
# Experimental: Evaluation of the Anti-Oedema Effect of Ivermectin, Praziquantel and Timolol and Combinations of Timolol with Ivermectin or Praziquantel after a Single Topical Application in the TPA-Induced Ear Oedema Model in Balb/c Mice.
# The oedema is induced by means of a single application to the right ear of the mouse of 10 μl of a solution of TPA (phorbol 12-myristate 13-acetate) in acetone at 0.01%. The test compounds are diluted in acetone and applied with TPA. The weight of the mouse ears is measured at T+6 h and the weight of the left ear is subtracted from the one of the right ear.
# Treatments: • A. Ivermectin is applied at a concentration of 0.1-0.3-1%, • B. Praziquantel is applied at a concentration at 0.3-1-3% • C. Timolol is applied at a concentration at 0.2-0.5-1%.
# For combination studies Ivermectin alone is applied at a concentration of 0.3%, praziquantel alone is applied at 1% and timolol alone is applied at 0.5%. These same strengths are used in the combinations.
# Each graph represents the average weight of the ear oedema of four different groups of treated animals. Each group includes 6 animals. Numbers above the bars indicate the percentage inhibition of the corresponding group of treated animals vs the control group.
# [2] = tested on: TPA-induced ear oedema; details: topical 0.2%; mice; cited from earlier work
# [3] = dose-response study (FIGS. A-C), 0.3% in acetone applied with TPA, ear weight at T+6 h
# [4] = dose-response study (FIGS. A-C), 1% in acetone applied with TPA, ear weight at T+6 h
structure (smiles),measurement,setting,value
"CC[C@H](C)[C@H]1O[C@]2(CC[C@@H]1C)C[C@@H]1C[C@@H](C/C=C(\C)C(O[C@H]3C[C@H](OC)C(O[C@H]4C[C@H](OC)[C@@H](O)[C@H](C)O4)[C@H](C)O3)[C@@H](C)/C=C/C=C3\CO[C@@H]4[C@H](O)C(C)=C[C@@H](C(=O)O1)[C@]34O)O2 (some centres unmarked) [ivermectin, 22,23-dihydroavermectin B1a]",inhibition of ear oedema vs control group,"[1]; combination study FIG. 1, ivermectin alone at 0.3%, T+6 h",37%
same,inhibition of ear oedema vs control group,"[1]; dose-response study (FIGS. A-C), 0.1% in acetone applied with TPA, ear weight at T+6 h",20%
same,inhibition of ear oedema vs control group,[1]; [3],43%
same,inhibition of ear oedema vs control group,[1]; [4],82%
"O=C(C1CCCCC1)N1CC(=O)N2CCc3ccccc3C2C1 (racemic) [praziquantel, (RS)-2-(Cyclohexylcarbonyl)-1,2,3,6,7,11b-hexahydro-4H-pyrazino[2,1-a]isoquinolin-4-one]",inhibition of ear oedema vs control group,"[1]; combination study FIG. 2, praziquantel alone at 1%, T+6 h",42%
same,inhibition of ear oedema vs control group,[1]; [3],15%
same,inhibition of ear oedema vs control group,[1]; [4],48%
same,inhibition of ear oedema vs control group,"[1]; dose-response study (FIGS. A-C), 3% in acetone applied with TPA, ear weight at T+6 h",91%
Brc1c(NC2=NCCN2)ccc2nccnc12 [brimonidine],inhibition of TPA-induced ear oedema,[2],50%
"CC(C)(C)NC[C@H](O)COc1nsnc1N1CCOCC1 [timolol, (S)-1-(tert-butylamino)-3-[(4-morpholin-4-yl-1,2,5-thiadiazol-3-yl)oxy]propan-2-ol]",inhibition of ear oedema vs control group,"[1]; combination study FIG. 1, timolol alone at 0.5%, T+6 h",30%
same,inhibition of ear oedema vs control group,"[1]; combination study FIG. 2, timolol alone at 0.5%, T+6 h",16%
same,inhibition of ear oedema vs control group,"[1]; dose-response study (FIGS. A-C), 0.2% in acetone applied with TPA, ear weight at T+6 h",6%
same,inhibition of ear oedema vs control group,"[1]; dose-response study (FIGS. A-C), 0.5% in acetone applied with TPA, ear weight at T+6 h",23%
same,inhibition of ear oedema vs control group,[1]; [4],14%
